This passage reports EC50 results from patent publication US9580426B2, “Compounds that expand hematopoietic stem cells” (Novartis AG, priority 2008, dated 2017).

SMILES strings stand for the structures.

This test has as its system Primary adult CD34+ human hematopoietic stem cells (HSCs). Nature of the test: % CD34+ assay: HSC expansion screen, dose response. Format: cell-based. The following applies: Homo sapiens, Hematopoietic stem cell; dose response 1 nM to 10 μM; total number and/or percent of CD34+ cells. The protocol: Primary adult CD34^+ human hematopoietic stem cells (HSCs) are cultured and screened to identify compounds of the invention that facilitate HSC expansion. The cells are analyzed for the presence of the desired phenotype (CD34 expression). Compounds of the invention promote HSC expansion in a dose dependent manner.
Culture Medium: StemSpan SFEM medium is serum-free medium (StemCell Technologies, Vancouver, BC) supplemented with the following human recombinant cytokines: thrombopoietin, interleukin-6, Flt-3 ligand, and stem cell factor (all from R&D Systems, Minneapolis, Minn.), each at a final concentration of 50 ng/mL, with vehicle (DMSO) or a compound of the invention.
Human Cell Culture: Fresh human leukophoresed G-CSF mobilized peripheral blood from normal donors, CD34^+ cells from adult bone marrow and cryopreserved human cord blood CD34^+ cells are purchased from AllCells (Berkeley, Calif.). Human CD34^+ cells are enriched from leukophoresed G-CSF mobilized peripheral blood using magnetic cell sorting (MACS, Direct CD34 Progenitor Cell Isolation Kit, Miltenyi Biotec, Bergisch Gladbach, Germany) and cryopreserved. CD34^+ cell purity, checked by flow Cytometry, is higher than 90%. After thawing, the cell viability tested by trypan blue exclusion is higher than 70%. The thawed cells are centrifuged and resuspended with StemSpan medium before being aliquoted for immediate culture. Cells are plated at 10^4 cells/mL in a 384 well plate (Greiner Bio-One, Monroe, N.C.) with 50 μL of medium per well for 7 days. Every 7 days the cells are transferred to larger well plates and fresh medium is added to keep the cell density between 10^4 and 5×10^5 cells/mL. Cells were cultured at 37° C. in 5% CO2. For transplantation, cells were cultured in 75 cm^2 flasks before the cells were transplanted into mice. At a concentration of 1 micromolar, 4-(2-(2-(benzo[b]thiophen-3-yl)-9-isopropyl-9H-purin-6-ylamino)ethyl)phenol (compound 1, table 1; example 1), 4-(2-(2-(benzo[b]thiophen-3-yl)-9-sec-butyl-9H-purin-6-ylamino)ethyl)phenol (compound 2, table 1), and N-(2-(1H-indol-3-yl)ethyl)-2-(benzo[b]thiophen-3-yl)-9-isopropyl-9H-purin-6-amine (compound 9, table 1) each gives rise to a greater than 10-fold increase in the number of CD34^+ CD45RA^− cells derived from 1000 mPB CD34^+ HSCs after 21 days compared to vehicle. Compounds of the invention were assayed in a dose response format (1 nM to 10 μM) to determine the effective concentration that produced the desired effect in 50% of the cells (EC50).
For `Oc1ccc(CCNc2nc(-c3cccnc3)nc3c2ncn3[C@@H]2CCOC2)cc1` [Example 93R], the EC50 came out at 520 nM.

In turn, `Oc1ccc(CCNc2nc(-c3cccnc3)nc3c2ncn3[C@H]2CCOC2)cc1` [Example 93S] yielded a concentration giving a half-maximal response (EC50) of 1100 nM. Against the preceding molecule, the EC50 is about 2.1-fold higher. With `Oc1ccc(CCNc2nc(-c3cccnc3)nc3c2ncn3C2COC2)cc1` [Example 94], the concentration giving a half-maximal response (EC50) amounted to 970 nM.

The molecule `CC(Cc1ccc(O)cc1)Nc1nc(-c2cccnc2)nc2c1ncn2C(C)C` (stereo not shown) [Example 95] showed a 50% effective concentration (EC50) of 2300 nM. Consider `CC(C)n1cnc2c(NCCc3n[nH]c4ccccc34)nc(-c3cccnc3)nc21` [Example 98], for which the concentration for a half-maximal effect (EC50) was found to be 8200 nM. This EC50 lies about 3.6-fold higher than the previous one. As for `CC(C)n1cnc2c(N(C)CCc3ccc(O)cc3)nc(-c3cccnc3)nc21` [Example 99], the concentration for a half-maximal effect (EC50) came to 7500 nM.

As for `CC(CO)n1cnc2c(NCCc3ccc(O)cc3)nc(-c3cccnc3)nc21` (stereo not shown) [Example 113], the half-maximal effective concentration (EC50) worked out at 540 nM. Against the preceding molecule, the EC50 is about 14-fold lower. To `CC(C)n1cnc2c(NCCc3ccc(OS(N)(=O)=O)cc3)nc(-c3cccnc3)nc21` [Example 114] belongs 1100 nM.

`CC(C)n1cnc2c(NCCc3ccc(O)cc3)nc(-c3cccnc3F)nc21` [Example 118] returned an EC50 of 450 nM. As for `CC(C)n1cnc2c(NCCc3ccc(O)cc3)nc(-c3cccn3C)nc21` [Example 119], the EC50 came out at 1400 nM. This EC50 lies about 3.1-fold higher than the previous one. To `CC(C)n1cnc2c(NCCc3ccc(O)cc3)nc(-c3cncs3)nc21` [Example 120] belongs 1400 nM; to `CC(C)n1cnc2c(NCCc3ccc(O)cc3)nc(-n3cnc4ccccc43)nc21` [Example 121], 86 nM; to `Cc1nccn1-c1nc(NCCc2ccc(O)cc2)c2ncn(C(C)C)c2n1` [Example 123, 4-(2-(9-Isopropyl-2-(2-methyl-1H-imidazol-1-yl)-9H-purin-6-ylamino)ethyl)phenol], 66 nM. As for `CCC(C)n1cnc2c(NCCc3ccc(O)c(C)c3)nc(-c3cncc(C#N)c3)nc21` (stereo not shown) [Example 124], it took 3 nM to reach a half-maximal effect (EC50). This EC50 lies about 22-fold lower than the previous one. The value for `Cc1cc(CCNc2nc(-c3cccnc3)nc3c2ncn3C(C)C)n[nH]1` [Example 126] was 5000 nM; that for `Oc1ccc(CCNc2nc(-c3cncc(F)c3)nc3c2ncn3C2COC2)cc1` [Example 127] was 470 nM; that for `CC(C)n1cnc2c(NCCc3ccc(O)cc3)nc(-c3cncc(Cl)c3)nc21` [Example 128, 4-(2-(2-(5-Chloropyridin-3-yl)-9-isopropyl-9H-purin-6-ylamino)ethyl)phenol] was 19 nM. As for `CC(C)n1cnc2c(NCCc3ccc(O)cc3)nc(-c3cncc(C(F)(F)F)c3)nc21` [Example 129], a half-maximal response (EC50) required 120 nM. To `CCC(C)n1cnc2c(NCCc3c[nH]c4ccccc34)nc(-c3cncc(C#N)c3)nc21` (stereo not shown) [Example 130] belongs 1 nM.

Molecule `CC[C@@H](C)n1cnc2c(NCCc3c[nH]c4ccccc34)nc(-c3cncc(C)c3)nc21` [Example 131R] returned an EC50 of 3 nM. The value for `CC[C@H](C)n1cnc2c(NCCc3c[nH]c4ccccc34)nc(-c3cncc(C)c3)nc21` [Example 131S] was 3 nM. To `CCC(C)n1cnc2c(NCCc3c[nH]c4ccccc34)nc(-c3cncc(C)c3)nc21` (stereo not shown) [Example 131] belongs 4 nM. To `CC[C@@H](C)n1cnc2c(NCCc3c[nH]c4ccccc34)nc(-c3cncc(F)c3)nc21` [Example 132R] belongs 1 nM; to `CC[C@H](C)n1cnc2c(NCCc3c[nH]c4ccccc34)nc(-c3cncc(F)c3)nc21` [Example 132S], 2 nM; to `CCC(C)n1cnc2c(NCCc3c[nH]c4ccccc34)nc(-c3cncc(F)c3)nc21` (stereo not shown) [Example 132], 3 nM. `N#Cc1cncc(-c2nc(NCCc3ccc(O)cc3)c3ncn(C4COC4)c3n2)c1` [Example 133]: the EC50 came out at 180 nM. As for `CC(C)n1ncc2c(NCCc3ccc(O)cc3)nc(-c3csc4ccccc34)nc21` [Example 135], the EC50 was 380 nM. Compared with the last molecule, the EC50 is about 2.1-fold higher. In the case of `Cc1cc(O)ccc1CCNc1nc(-c2cccnc2)nc2c1ncn2C(C)C` [Example 138], the midpoint of the response, the EC50, lay at 400 nM. The value for `CC(C)n1cnc2c(NCCc3ccc(O)cc3)nc(-c3ccc(C#N)nc3)nc21` [Example 139] was 1300 nM; that for `CC(C)n1cnc2c(NCCc3ccc(O)cc3)nc(-c3cnccc3C#N)nc21` [Example 140] was 91 nM; that for `CC(C)n1ccc2c(NCCc3ccc(O)cc3)nc(-c3cncc(F)c3)nc21` [Example 141, 4-(2-(2-(5-Fluoropyridin-3-yl)-7-isopropyl-7H-pyrrolo[2,3-d]pyrimidin-4-ylamino)ethyl)phenol] was 160 nM. As for `CC(C)n1cnc2c(NCCc3ccc(O)cc3)nc(-c3cccnc3C#N)nc21` [Example 143], the midpoint of the response, the EC50, lay at 4300 nM. With `Cc1ccc(-c2nc(NCCc3ccc(O)cc3)c3ncn(C(C)C)c3n2)cn1` [Example 144], it took 160 nM to reach a half-maximal effect (EC50).

`CC(C)n1cnc2c(NCCc3ccc(O)cc3)nc(-c3cncc4ccccc34)nc21` [Example 145]: the concentration for a half-maximal effect (EC50) came to 5400 nM. To `CC(C)n1cnc2c(NCCc3ccc(O)c(Cl)c3)nc(-c3cccnc3)nc21` [Example 146] belongs 240 nM; to `CC(C)n1cnc2c(NCCc3ccc(O)cc3F)nc(-c3cccnc3)nc21` [Example 147], 92 nM; to `CC(C)n1cnc2c(NCCc3c[nH]c4ccc(Cl)cc34)nc(-c3cccnc3)nc21` [Example 148], 750 nM. The value for `CC(C)n1cnc2c(NCCc3c[nH]c4ccc(F)cc34)nc(-c3cccnc3)nc21` [Example 149] was 520 nM; that for `Cc1cc(CCNc2nc(-c3cccnc3)nc3c2ncn3C(C)C)ccc1O` [Example 150] was 57 nM; that for `Oc1ccc(CCNc2nc(-c3csc4ccccc34)nc3c2ncn3C2COC2)cc1` [Example 151] was 170 nM. The value for `Oc1ccc(CCNc2nc(-c3csc4ccccc34)nc3c2ncn3[C@H]2CCOC2)cc1` [Example 152] was 350 nM; that for `Oc1ccc(CCNc2nc(-c3csc4ccccc34)nc3c2ncn3[C@@H]2CCOC2)cc1` [Example 153, (R)-4-(2-(2-(benzo[b]thiophen-3-yl)-9-(tetrahydrofuran-3-yl)-9H-purin-6-ylamino)ethyl)phenol] was 220 nM. Molecule `CC(CO)n1cnc2c(NCCc3c[nH]c4ccccc34)nc(-c3cncc(F)c3)nc21` (stereo not shown) [Example 157, 2-(6-(2-(1H-indol-3-yl)ethylamino)-2-(5-fluoropyridin-3-yl)-9H-purin-9-yl)propan-1-ol] had a concentration giving a half-maximal response (EC50) of 5 nM. The value for `C[C@H](CO)n1cnc2c(NCCc3c[nH]c4ccccc34)nc(-c3cncc(F)c3)nc21` [Example 157R, (R)-2-(6-(2-(1H-indol-3-yl)ethylamino)-2-(5-fluoropyridin-3-yl)-9H-purin-9-yl)propan-1-ol] was 8 nM. To `C[C@@H](CO)n1cnc2c(NCCc3c[nH]c4ccccc34)nc(-c3cncc(F)c3)nc21` [Example 157S, (S)-2-(6-(2-(1H-indol-3-yl)ethylamino)-2-(5-fluoropyridin-3-yl)-9H-purin-9-yl)propan-1-ol] belongs 3 nM.

In the case of `Fc1cncc(-c2nc(NCCc3c[nH]c4ccccc34)c3ncn([C@@H]4CCOC4)c3n2)c1` [Example 158], the concentration for a half-maximal effect (EC50) came to 12 nM.

In the case of `CC(C)n1cnc2c(NCCc3ccc(O)cc3)nc(-n3cnc4cccnc43)nc21` [Example 159], the concentration giving a half-maximal response (EC50) amounted to 590 nM. The value for `CC(C)n1cnc2c(NCCc3ccc(O)cc3)nc(-n3cnc4ncccc43)nc21` [Example 160] was 1900 nM; that for `CC(C)n1cnc2c(NCCc3ccc(O)cc3)nc(-c3cncc(F)c3)cc21` [Example 161, 4-(2-(6-(5-Fluoropyridin-3-yl)-1-isopropyl-1H-imidazo[4,5-c]pyridin-4-ylamino)ethyl)phenol] was 170 nM. The molecule `Cc1ncn(-c2nc(NCCc3ccc(O)cc3)c3ncn(C(C)C)c3n2)c1C` [Example 162] showed an EC50 of 140 nM. Take `CC(C)n1cnc2c(NCCc3cccnc3)nc(-c3cncc(F)c3)nc21` [Example 166]: the EC50 is 7500 nM.

In turn, `CC(C)n1cnc2c(NCC(O)c3ccc(O)cc3)nc(-c3cncc(F)c3)nc21` (stereo not shown) [Example 167] yielded a half-maximal effective concentration (EC50) of 290 nM. The value for `COc1ccc2c(CCNc3nc(-c4cncc(F)c4)nc4c3ncn4C(C)C)c[nH]c2c1` [Example 169] was 44 nM; that for `CC(C)n1cnc2c(NCCc3c[nH]c4ccccc34)nc(-c3cncc(F)c3)nc21` [Example 170] was 6 nM; that for `COc1ccc2[nH]cc(CCNc3nc(-c4cncc(F)c4)nc4c3ncn4C(C)C)c2c1` [Example 172] was 420 nM.
